From patent US10730866B2, “Indole derivatives and use thereof” (Purdue Pharma L.P., priority 2014, dated 2020)

The compounds below were run against human Nav1.7 (Homo sapiens (Human), UniProt Q15858) (assay: FLIPR or FLIPR TETRA sodium dye assay for sodium channel blocking activity). Settings: recombinant HEK293 cells expressing human Nav1.7.
Type: cell-based
Description: In vitro assays were performed in a recombinant cell line expressing cDNA encoding the alpha subunit (Nav1.7, SCN9a, PN1, NE) of human Nav1.7 (Accession No. NM_002977). The cell line was provided by investigators at Yale University (Cummins et al, J. Neurosci. 18(23): 9607-9619 (1998)). For dominant selection of the Nav1.7-expressing clones, the expression plasmid co-expressed the neomycin resistance gene. The cell line was constructed in the human embryonic kidney cell line, HEK293, under the influence of the CMV […] promoter, and stable clones were selected using limiting dilution cloning and antibiotic selection using the neomycin analogue, G418. Recombinant beta and gamma subunits were not introduced into this cell line. Additional cell lines expressing recombinant Nav1.7 cloned from other species can also be used, alone or in combination with various beta subunits, gamma subunits or chaperones.
Unless otherwise noted, cell culture reagents were purchased from Mediatech of Herndon, Va. The recombinant Nav1.7/HEK293 cells were routinely cultured in growth medium consisting of Dulbecco's […] essential medium containing 10% fetal bovine serum (FBS, Hyclone, Thermo Fisher Scientific, Logan, Utah), 100 U/mL penicillin, 100 μg/mL streptomycin, 2-4 mM L-glutamine, and […] G418. For natural, non-recombinant cell lines, the selective antibiotic was omitted, and additional media formulations can be applied as needed.
The final buffer consisted of 20 mM Hepes, pH 7.3, 1.261 mM CaCl2, 0.493 mM MgCl2, 0.407 mM Mg(SO)4, 5.33 mM KCl, 0.441 mM KH2PO4, 137 mM NaCl, 0.336 mM Na2HPO4 and […] D-glucose (Hanks et al., Proc. Soc. Exp. Biol. Med. 71:196 (1949)), and the simple formulation was typically the basic buffer throughout the assay (i.e., all wash and addition steps).
The fluorescence indicator used in the primary fluorescence assay was the cell permeant version of CoroNa™ Green (Invitrogen, Molecular Probes, Eugene, Oreg.), a dye that emits light in the fluorescence range (Harootunian et al., J. Biol. Chem. 264(32):19458-19467 (1989)). The intensity of this emission, but not the wavelength range, is increased when the dye is exposed to Na^+ ions, which it can bind with partial selectivity. Cells expressing Nav1.7 or other sodium channels were loaded with the CoroNa™ Green dye immediately in advance of the fluorescence assay, and then, after agonist stimulation, the mobilization of Na^+ ions was detected as the Na^+ ions flowed from the extracellular fluid into the cytoplasm through the activated sodium channel pores. The dye was stored in the dark as a lyophilized powder, and then an aliquot was dissolved immediately before the cell loading procedure, according to the instructions of the manufacturer, to a stock concentration of 10 mM in DMSO. It was then diluted in the assay buffer to a 4× concentrated working solution, so that the final concentration of dye in the cell loading buffer was 5 μM.
In the fluorescence assays, two agonists were used in combination, namely 1) veratridine; and 2) the venom from the yellow scorpion, Leiurus quinquestriatus hebraeus. Veratridine is an alkaloid small molecule that facilitates the capture of channel openings by inhibiting inactivation, and the scorpion venom is a natural preparation that includes peptide toxins selective for different subsets of voltage-gated sodium channels. These scorpion toxins inhibit the fast inactivation of their cognate target channels. Stock solutions of the agonists were prepared to 40 mM in DMSO (veratridine) and 1 mg/mL in dH2O (scorpion venom), and then diluted to make a 4× or 2× stock (depending on the particular assay) in assay buffer, the final concentration being 100 μM (veratridine) and 10 μg/mL (scorpion venom). Both of the agonists were purchased from Sigma Aldrich, St. Louis, Mo.
Test compounds were dissolved in DMSO to yield 10 mM stock solutions. […]

Sequence of human Nav1.7 (Q15858 other isoform, or with tags, fused parts or gaps): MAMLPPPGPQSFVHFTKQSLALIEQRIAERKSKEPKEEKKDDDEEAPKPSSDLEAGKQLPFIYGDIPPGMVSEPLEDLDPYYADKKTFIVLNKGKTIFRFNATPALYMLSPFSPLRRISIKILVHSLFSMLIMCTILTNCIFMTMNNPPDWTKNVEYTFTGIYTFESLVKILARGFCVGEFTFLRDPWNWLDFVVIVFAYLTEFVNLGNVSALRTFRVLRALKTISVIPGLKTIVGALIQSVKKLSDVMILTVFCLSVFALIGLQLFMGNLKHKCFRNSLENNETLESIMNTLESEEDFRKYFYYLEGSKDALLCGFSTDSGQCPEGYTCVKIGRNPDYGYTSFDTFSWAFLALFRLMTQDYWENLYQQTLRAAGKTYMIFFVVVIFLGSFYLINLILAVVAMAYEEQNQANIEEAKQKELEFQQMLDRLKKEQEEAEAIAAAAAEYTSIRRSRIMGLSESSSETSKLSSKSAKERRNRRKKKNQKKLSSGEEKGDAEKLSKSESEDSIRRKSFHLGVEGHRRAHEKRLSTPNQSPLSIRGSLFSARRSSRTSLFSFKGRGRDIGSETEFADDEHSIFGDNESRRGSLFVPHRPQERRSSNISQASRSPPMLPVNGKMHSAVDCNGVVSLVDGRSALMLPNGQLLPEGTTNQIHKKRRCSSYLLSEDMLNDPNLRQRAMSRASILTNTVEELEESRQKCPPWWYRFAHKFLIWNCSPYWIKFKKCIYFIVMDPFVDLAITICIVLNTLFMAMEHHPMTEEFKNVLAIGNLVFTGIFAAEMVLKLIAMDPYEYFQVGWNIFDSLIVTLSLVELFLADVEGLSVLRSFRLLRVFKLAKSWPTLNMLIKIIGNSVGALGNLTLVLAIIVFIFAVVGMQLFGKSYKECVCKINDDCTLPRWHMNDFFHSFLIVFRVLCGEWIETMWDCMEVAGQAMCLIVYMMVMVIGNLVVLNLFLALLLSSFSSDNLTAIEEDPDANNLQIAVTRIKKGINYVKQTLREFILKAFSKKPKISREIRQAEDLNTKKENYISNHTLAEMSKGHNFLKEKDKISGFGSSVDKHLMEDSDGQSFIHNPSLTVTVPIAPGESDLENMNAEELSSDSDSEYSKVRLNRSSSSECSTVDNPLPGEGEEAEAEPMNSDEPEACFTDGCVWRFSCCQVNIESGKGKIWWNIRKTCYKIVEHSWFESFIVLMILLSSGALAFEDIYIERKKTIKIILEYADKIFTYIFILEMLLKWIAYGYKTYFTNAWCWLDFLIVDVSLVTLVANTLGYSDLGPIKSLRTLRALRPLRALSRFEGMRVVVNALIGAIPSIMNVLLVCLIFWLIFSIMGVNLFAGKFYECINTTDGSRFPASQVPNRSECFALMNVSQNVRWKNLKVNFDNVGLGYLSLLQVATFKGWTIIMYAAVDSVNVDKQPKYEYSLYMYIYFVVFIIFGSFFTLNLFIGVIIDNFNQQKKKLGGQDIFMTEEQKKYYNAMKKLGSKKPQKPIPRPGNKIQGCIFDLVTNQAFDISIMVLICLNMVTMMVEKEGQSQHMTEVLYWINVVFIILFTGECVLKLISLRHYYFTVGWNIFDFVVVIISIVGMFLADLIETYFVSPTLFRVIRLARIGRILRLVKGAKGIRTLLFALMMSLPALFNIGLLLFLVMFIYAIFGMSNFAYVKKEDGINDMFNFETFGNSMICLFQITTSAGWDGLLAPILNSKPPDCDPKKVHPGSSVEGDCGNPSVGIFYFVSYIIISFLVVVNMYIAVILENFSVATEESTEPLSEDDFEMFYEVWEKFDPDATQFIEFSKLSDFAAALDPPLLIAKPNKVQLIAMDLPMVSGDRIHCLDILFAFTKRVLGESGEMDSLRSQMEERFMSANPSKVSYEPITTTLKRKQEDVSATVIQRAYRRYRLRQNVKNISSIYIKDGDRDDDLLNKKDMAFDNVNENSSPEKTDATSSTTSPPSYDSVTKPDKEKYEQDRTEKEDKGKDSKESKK

Row | SMILES | IC50
1 | NC(=O)c1cccc(-c2ccc3[nH]ccc3c2)n1 [Compound 29, 6-(1H-indol-5-yl)picolinamide] | > 20 µM
2 | O=C(Nc1ccc(C(F)(F)F)cc1)c1cccc(-c2ccc3[nH]ccc3c2)n1 [Compound 32, 6-(1H-indol-5-yl)-N-(4-(trifluoromethyl)phenyl)picolinamide] | 0.233 ± 0.035 µM
3 | O=C(c1cccc(-c2ccc3[nH]ccc3c2)n1)N(c1ccc(C(F)(F)F)cc1)c1ccc(C(F)(F)F)cc1 [Compound 33, 6-(1H-indol-5-yl)-N,N-bis(4-(trifluoromethyl)phenyl)picolinamide] | > 20 µM
4 | C[C@H](Nc1cc(C(N)=O)nc(-c2ccc3[nH]ccc3c2)n1)C(N)=O [Compound 35, (S)-6-((1-amino-1-oxopropan-2-yl)amino)-2-(1H-indol-5-yl)pyrimidine-4-carboxamide] | > 20 µM
5 | NC(=O)c1cc(N[C@H]2CCNC2=O)nc(-c2ccc3[nH]ccc3c2)n1 [Compound 36, (S)-2-(1H-indol-5-yl)-6-((2-oxopyrrolidin-3-yl)amino)pyrimidine-4-carboxamide] | > 20 µM
6 | NC(=O)c1cc(O[C@H]2CCNC2=O)nc(-c2ccc3[nH]ccc3c2)n1 [Compound 37, (S)-2-(1H-indol-5-yl)-6-((2-oxopyrrolidin-3-yl)oxy)pyrimidine-4-carboxamide] | > 20 µM
7 | COc1ccc(-c2nc3cc(-c4nc(N[C@H]5CCNC5=O)cc(C(N)=O)n4)ccc3n2-c2ccc(F)cc2)c(OC)c1 [Compound 42, (S)-2-(2-(2,4-dimethoxyphenyl)-1-(4-fluorophenyl)-1H-benzo[d]imidazol-5-yl)-6-((2-oxopyrrolidin-3-yl)amino)pyrimidine-4-carboxamide] | 2.02 ± 0.146 µM
8 | NC(=O)c1cc(N[C@H]2CCNC2=O)nc(-c2ccc3c(c2)ncn3-c2ccc(C(F)(F)F)cc2)n1 [Compound 45, (S)-6-((2-oxopyrrolidin-3-yl)amino)-2-(1-(4-(trifluoromethyl)phenyl)-1H-benzo[d]imidazol-5-yl)pyrimidine-4-carboxamide] | 7.21 ± 0.562 µM
9 | CC(C)Cn1ccc2cc(-c3nc(N[C@@H](C)C(N)=O)cc(C(N)=O)n3)ccc21 [Compound 47, (S)-6-((1-amino-1-oxopropan-2-yl)amino)-2-(1-isobutyl-1H-indol-5-yl)pyrimidine-4-carboxamide] | 4.19 ± 0.862 µM
10 | OC[C@H](O)c1ccnc(-c2ccc3ncn(-c4ccc(C(F)(F)F)cc4)c3c2)n1 [Compound 50, (R)-1-(2-(1-(4-(trifluoromethyl)phenyl)-1H-benzo[d]imidazol-6-yl)pyrimidin-4-yl)ethane-1,2-diol] | > 20 µM
11 | OC[C@@H](O)c1ccnc(-c2ccc3ncn(-c4ccc(C(F)(F)F)cc4)c3c2)n1 [Compound 51, (S)-1-(2-(1-(4-(trifluoromethyl)phenyl)-1H-benzo[d]imidazol-6-yl)pyrimidin-4-yl)ethane-1,2-diol] | 3.51 ± 0.733 µM
12 | NC(=O)c1cccc(-c2ccc3c(ccn3Cc3ccc(C(F)(F)F)cc3)c2)n1 [Compound 56, 6-(1-(4-(trifluoromethyl)benzyl)-1H-indol-5-yl)picolinamide] | 0.23 ± 0.026 µM
13 | NC(=O)c1cccc(-c2ccc3c(ccn3S(=O)(=O)c3ccc(C(F)(F)F)cc3)c2)n1 [Compound 57, 6-(1-((4-(trifluoromethyl)phenyl)sulfonyl)-1H-indol-5-yl)picolinamide] | 0.658 ± 0.078 µM
14 | NC(=O)c1cccc(-c2ccc3c(ccn3CC3CCCCC3)c2)n1 [Compound 58, 6-(1-(cyclohexylmethyl)-1H-indol-5-yl)picolinamide] | 0.237 ± 0.062 µM
15 | NC(=O)c1cccc(-c2ccc3c(ccn3S(=O)(=O)C3CCCCC3)c2)n1 [Compound 59, 6-(1-(cyclohexylsulfonyl)-1H-indol-5-yl)picolinamide] | 0.927 ± 0.05 µM
16 | NC(=O)c1cccc(-c2ccc3c(ccn3Cc3ccc(F)cc3)c2)n1 [Compound 61, 6-(1-(4-fluorobenzyl)-1H-indol-5-yl)picolinamide] | 0.801 ± 0.052 µM

Row | SMILES | IC50
17 | Cc1ccc(Cn2ccc3cc(-c4cccc(C(N)=O)n4)ccc32)cc1 [Compound 62, 6-(1-(4-methylbenzyl)-1H-indol-5-yl)picolinamide] | > 20 µM
18 | NC(=O)c1cccc(-c2ccc3c(ccn3CCC3CCCCC3)c2)n1 [Compound 63, 6-(1-(2-cyclohexylethyl)-1H-indol-5-yl)picolinamide] | 1.12 ± 0.182 µM
19 | NC(=O)c1cccc(-c2ccc3c(ccn3Cc3ccncc3)c2)n1 [Compound 64, 6-(1-(pyridin-4-ylmethyl)-1H-indol-5-yl)picolinamide] | > 20 µM
20 | NC(=O)c1cccc(-c2ccc3c(ccn3CCN3CCOCC3)c2)n1 [Compound 65, 6-(1-(2-morpholinoethyl)-1H-indol-5-yl)picolinamide] | > 20 µM
21 | Cc1noc(C)c1Cn1ccc2cc(-c3cccc(C(N)=O)n3)ccc21 [Compound 66, 6-(1-((3,5-dimethylisoxazol-4-yl)methyl)-1H-indol-5-yl)picolinamide] | 5.55 ± 0.376 µM
22 | CC(C)Cn1ccc2cc(-c3cccc(C(N)=O)n3)ccc21 [Compound 67, 6-(1-isobutyl-1H-indol-5-yl)picolinamide] | 0.308 ± 0.078 µM
23 | Cc1nc(Cn2ccc3cc(-c4cccc(C(N)=O)n4)ccc32)cs1 [Compound 68, 6-(1-((2-methylthiazol-4-yl)methyl)-1H-indol-5-yl)picolinamide] | 10 to 20 µM
24 | Cn1ccc2cc(-c3cccc(C(=O)Nc4ccc(C(F)(F)F)cc4)n3)ccc21 [Compound 75, 6-(1-methyl-1H-indol-5-yl)-N-(4-(trifluoromethyl)phenyl)picolinamide] | 3.03 ± 0.837 µM
25 | O=C(NC1CCCCC1)c1cccc(-c2ccc3[nH]ccc3c2)n1 [Compound 76, N-cyclohexyl-6-(1H-indol-5-yl)picolinamide] | 0.167 ± 0.02 µM
26 | O=C(Nc1ccc(C(F)(F)F)cc1)c1cccc(-c2ccc3[nH]ncc3c2)n1 [Compound 77, 6-(1H-indazol-5-yl)-N-(4-(trifluoromethyl)phenyl)picolinamide] | 2.7 ± 0.524 µM
27 | C[C@H](Nc1cc(C(=O)Nc2ccc(C(F)(F)F)cc2)nc(-c2ccc3occc3c2)n1)C(N)=O [Compound 79, (S)-6-((1-amino-1-oxopropan-2-yl)amino)-2-(benzofuran-5-yl)-N-(4-(trifluoromethyl)phenyl)pyrimidine-4-carboxamide] | > 20 µM
28 | C[C@H](Nc1cc(C(=O)Nc2ccc(C(F)(F)F)cc2)nc(-c2ccc3[nH]ccc3c2)n1)C(N)=O [Compound 80, (S)-6-((1-amino-1-oxopropan-2-yl)amino)-2-(1H-indol-5-yl)-N-(4-(trifluoromethyl)phenyl)pyrimidine-4-carboxamide] | > 20 µM
29 | O=C(Nc1ccc(C(F)(F)F)cc1)c1cccc(-c2ccc3occc3c2)n1 [Compound 81, 6-(benzofuran-5-yl)-N-(4-(trifluoromethyl)phenyl)picolinamide] | 0.782 ± 0.044 µM
30 | O=C(NCC1CCCCC1)c1cccc(-c2ccc3[nH]ccc3c2)n1 [Compound 83, N-(cyclohexylmethyl)-6-(1H-indol-5-yl)picolinamide] | 0.18 ± 0.031 µM
31 | O=C(c1cccc(-c2ccc3[nH]ccc3c2)n1)N1CCCC1 [Compound 84, (6-(1H-indol-5-yl)pyridin-2-yl)(pyrrolidin-1-yl)methanone] | > 20 µM
32 | O=C(NC1CCCC1)c1cccc(-c2ccc3[nH]ccc3c2)n1 [Compound 85, N-cyclopentyl-6-(1H-indol-5-yl)picolinamide] | 1.21 ± 0.242 µM
